Results as given in patent US12157730B2, “Heteroaryl derivative, method for producing same, and pharmaceutical composition comprising same as effective component” (VORONOI INC., priority 2019, dated 2024).

Target: T1, Ba/F3 cell EGFR Exon20 ins NPH (Homo sapiens, UniProt P00533, INS773NPH)
T1 construct: expressed in transfected cells; host or cells: Ba/F3
Experiment: Ba/F3 cell proliferation suppression, EGFR Exon20 ins NPH
Type: cell-based
Details: GI50 class; Ba/F3 cell line with NPH inserted at Exon20 of EGFR; 72 hours
Outline: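 Cells were seeded 24 h before dosing and then treated for 72 hours with compound at final concentrations of 0.3 nM to 50 um. Live cells were measured by CellTiter-Glo luminescence, and GI50 values were derived from growth ratio relative to control across three repeats.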

| Ba/F3 (NPH) Activity | SMILES |
| --- | --- |
| A (GI50 < 50 nM) | C=CC(=O)Nc1cc(Nc2cc(N3OCC[C@@H]3c3cccc(C)c3F)ncn2)c(OC)cc1N1CCC(N2CCOCC2)CC1 [compound 856, N-(5-((6-((R)-3-(2-fluoro-3-methylphenyl)isoxazolidine-2-yl)pyrimidine-4-yl)amino)-4-methoxy-2-(4-morpholinopiperidine-1-yl)phenyl)acrylamide] |
| A (GI50 < 50 nM) | C=CC(=O)Nc1cc(Nc2cc(N3OCC[C@@H]3c3ccc(Cl)c(Cl)c3F)ncn2)c(OC)cc1N1CCC(N2C[C@@H]3C[C@H]2CO3)CC1 [compound 770, N-(2-(4-((1S,4S)-2-oxa-5-azabicyclo [2.2.1]heptane-5-yl)piperidine-1-yl)-5-((6-((R)-3-(3,4-dichloro-2-fluorophenyl)isoxazolidine-2-yl)pyrimidine-4-yl)amino)-4-methoxyphenyl) acrylamide] |
| A (GI50 < 50 nM) | C=CC(=O)Nc1cc(Nc2cc(N3OCC[C@@H]3c3ccc(Cl)cc3)ncn2)c(OC)cc1N1CCC(N2C[C@H]3C[C@@H]2CO3)CC1 [compound 867, N-(2-(4-((1R,4R)-2-oxa-5-azabicyclo [2.2.1]heptane-5-yl)piperidine-1-yl)-5-((6-((R)-3-(4-chlorophenyl)isoxazolidine-2-yl)pyrimidine-4-yl)amino)-4-methoxyphenyl) acrylamide] |
| A (GI50 < 50 nM) | C=CC(=O)Nc1cc(Nc2cc(N3OCC[C@@H]3c3c(F)ccc(F)c3F)ncn2)c(OC)cc1N1CCC(N2CCO[C@H](C)C2)CC1 [compound 646, N-(4-methoxy-2-(4-((R)-2-methylmorpholino)piperidine-1-yl)-5-((6-((R)-3-(2,3,6-trifluorophenyl)isoxazolidine-2-yl)pyrimidine-4-yl)amino)phenyl)acrylamide] |
| A (GI50 < 50 nM) | C=CC(=O)Nc1cc(Nc2cc(N3OCC[C@@H]3c3ccc(Cl)c(Cl)c3)ncn2)c(OC)cc1N1CCC(N2C[C@@H]3C[C@H]2CO3)CC1 [compound 688, N-(2-(4-((1S,4S)-2-oxa-5-azabicyclo[2.2.1]heptane-5-yl)piperidine-1-yl)-5-((6-((R)-3-(3,4-dichlorophenyl)isoxazolidine-2-yl)pyrimidine-4-yl)amino)-4-methoxyphenyl) acrylamide] |
| B (50 nM ≤ GI50 < 500 nM) | C=CC(=O)Nc1cc(Nc2cc(N3OCC[C@@H]3c3ccc(Cl)c(F)c3)ncn2)c(OC)cc1N1CC[C@H](N2CCOCC2)C1 [compound 365, N-(5-((6-((R)-3-(4-chloro-3-fluorophenyl)isoxazolidine-2-yl)pyrimidine-4-yl)amino)-4-methoxy-2-((S)-3-morpholinopyrolidine-1-yl)phenyl) acrylamide] |
| A (GI50 < 50 nM) | C=CC(=O)Nc1cc(Nc2cc(N3OCC[C@@H]3c3cccc(C)c3F)ncn2)c(OC)cc1N1CCC(N2CC[C@H](N(C)C)C2)CC1 [compound 910, N-(2-(4-((S)-3-(dimethylamino)pyrolidine-1-yl)piperidine-1-yl)-5-((6-((R)-3-(2-fluoro-3-methylphenyl)isoxazolidine-2-yl)pyrimidine-4-yl)amino)-4-methoxyphenyl) acrylamide] |
| A (GI50 < 50 nM) | C=CC(=O)Nc1cc(Nc2cc(N3OCC[C@@H]3c3cc(F)cc(F)c3)ncn2)c(OC)cc1N1CCC(N2C[C@H]3COC[C@H]3C2)CC1 [Example 105, N-(5-((6-((R)-3-(3,5-difluorophenyl)isoxazolidine-2-yl)pyrimidine-4-yl)amino)-4-methoxy-2-(4-((3aR, 6aS)-tetrahydro-1H-puro[3,4-c]pyrrole-5(3H)-yl)piperidine-1-yl)phenyl)acrylamide] |
| A (GI50 < 50 nM) | C=CC(=O)Nc1cc(Nc2cc(N3OCC[C@@H]3c3ccc(Cl)c(F)c3)ncn2)c(OC)cc1N1CCC(N2CCN(C(C)C)CC2)CC1 [compound 708, N-(5-((6-((R)-3-(4-chloro-3-fluorophenyl)isoxazolidine-2-yl)pyrimidine-4-yl)amino)-2-(4-(4-isopropylpiperazine-1-yl)piperidine-1-yl)-4-methoxyphenyl) acrylamide] |
| A (GI50 < 50 nM) | C=CC(=O)Nc1cc(Nc2cc(N3OCC[C@@H]3c3cc(F)cc(Cl)c3)ncn2)c(OC)cc1N1CCC(N2C[C@@H](C)O[C@@H](C)C2)CC1 [compound 594, N-(5-((6-((R)-3-(3-chloro-5-fluorophenyl)isoxazolidine-2-yl)pyrimidine-4-yl)amino)-2-(4-((2S,6R)-2,6-dimethylmorpholino)piperidine-1-yl)-4-methoxyphenyl) acrylamide] |

Further lines, the compound ahead of its results:

| SMILES | Ba/F3 (NPH) Activity |
| --- | --- |
| C=CC(=O)Nc1cc(Nc2cc(N3OCC[C@@H]3c3cccc(C#N)c3)ncn2)c(OC)cc1N1CCC(N2CCC(F)(F)CC2)CC1 [compound 433, N-(5-((6-((R)-3-(3-cyanophenyl)isoxazolidine-2-yl)pyrimidine-4-yl)amino)-2-(4,4-difluoro-[1,4'-bipiperidine]-1'-yl)-4-methoxyphenyl) acrylamide] | A (GI50 < 50 nM) |
| C=CC(=O)Nc1cc(Nc2cc(N3OCC[C@@H]3Cc3cc(F)cc(F)c3)ncn2)c(OC)cc1N1CCC(N2CCN(C3CC3)CC2)CC1 [compound 1033, N-(2-(4-(4-cyclopropylpiperazine-1-yl)piperidine-1-yl)-5-((6-((S)-3-(3,5-difluorobenzyl)isoxazolidine-2-yl)pyrimidine-4-yl)amino)-4-methoxyphenyl) acrylamide] | A (GI50 < 50 nM) |
| C=CC(=O)Nc1cc(Nc2cc(N3OCC[C@@H]3Cc3ccc(C(F)(F)F)cc3)ncn2)c(OC)cc1N1CCC(N2C[C@H]3C[C@@H]2CO3)CC1 [compound 1051, N-(2-(4-((1R,4R)-2-oxa-5-azabicyclo [2.2.1]heptane-5-yl)piperidine-1-yl)-4-methoxy-5-((6-((S)-3-(4-(trifluoromethyl)benzyl)isoxazolidine-2-yl)pyrimidine-4-yl)amino)phenyl)acrylamide] | A (GI50 < 50 nM) |
| C=CC(=O)Nc1cc(Nc2cc(N3OCC[C@@H]3c3ccc4ccccc4c3)ncn2)c(OC)cc1N1CC[C@@H](N(C)C)C1 [compound 513, N-(2-((R)-3-(dimethylamino)pyrolidine-1-yl)-4-methoxy-5-((6-((R)-3-(naphthalene-2-yl)isoxazolidine-2-yl)pyrimidine-4-yl)amino)phenyl)acrylamide] | B (50 nM ≤ GI50 < 500 nM) |
| C=CC(=O)Nc1cc(Nc2cc(N3OCC[C@@H]3c3cccc(Cl)c3C)ncn2)c(OC)cc1N1CCC(N2CCC(F)(F)CC2)CC1 [compound 581, N-(5-((6-((R)-3-(3-chloro-2-methylphenyl)isoxazolidine-2-yl)pyrimidine-4-yl)amino)-2-(4,4-difluoro-[1,4'-bipiperidine]-1'-yl)-4-methoxyphenyl) acrylamide] | A (GI50 < 50 nM) |
| C=CC(=O)Nc1cc(Nc2cc(N3OCC[C@@H]3c3ccc(F)cc3)ncn2)c(OC)cc1N(C)CCN(C)C [Example 39, N-(2-((2-(dimethylamino)ethyl)(methyl)amino)-5-((6-((R)-3-(4-fluorophenyl)isoxazolidine-2-yl)pyrimidine-4-yl)amino)-4-methoxyphenyl) acrylamide] | A (GI50 < 50 nM) |
| C=CC(=O)Nc1cc(Nc2cc(N3OCC[C@@H]3c3ccc(F)c(Cl)c3F)ncn2)c(OC)cc1N1CCC(N2CCN(C3COC3)CC2)CC1 [Example 202, N-(5-((6-((R)-3-(3-chloro-2,4-difluorophenyl)isoxazolidine-2-yl)pyrimidine-4-yl)amino)-4-methoxy-2-(4-(4-(oxetane-3-yl)piperazine-1-yl)piperidine-1-yl)phenyl)acrylamide] | A (GI50 < 50 nM) |
| C=CC(=O)Nc1cc(Nc2cc(N3OCC[C@@H]3c3cc(F)ccc3F)ncn2)c(OC)cc1N1C[C@@H]2CCN(C)[C@@H]2C1 [compound 893, N-(5-((6-((R)-3-(2,5-difluorophenyl)isoxazolidine-2-yl)pyrimidine-4-yl)amino)-4-methoxy-2-((3aS,6aS)-1-methylhexahydropyrrolo [3,4-b]pyrrole-5(1H)-yl)phenyl) acrylamide] | A (GI50 < 50 nM) |
| C=CC(=O)Nc1cc(Nc2cc(N3OCC[C@@H]3c3ccc(C)nc3)ncn2)c(OC)cc1N1C[C@H]2C[C@@H]1CO2 [Example 224, N-(2-((1R,4R)-2-oxa-5-azabicyclo[2.2.1]heptane-5-yl)-4-methoxy-5-((6-((R)-3-(6-methylpyridine-3-yl)isoxazolidine-2-yl)pyrimidine-4-yl)amino)phenyl)acrylamide] | C (500 nM ≤ GI50 < 5000 nM) |
| C=CC(=O)Nc1cc(Nc2cc(N3OCC[C@@H]3c3cccs3)ncn2)c(OC)cc1N1CCC(N2CCN(C3CC3)CC2)CC1 [Example 147, N-(2-(4-(4-cyclopropylpiperazine-1-yl)piperidine-1-yl)-4-methoxy-5-((6-((R)-3-(thiophene-2-yl)isoxazolidine-2-yl)pyrimidine-4-yl)amino)phenyl)acrylamide] | A (GI50 < 50 nM) |
| C=CC(=O)Nc1cc(Nc2cc(N3OCC[C@@H]3c3ccc(C)nc3)ncn2)c(OC)cc1N1CCC(N2CCN(C)CC2)CC1 [Example 47, N-(4-methoxy-2-(4-(4-methylpiperazine-1-yl)piperidine-1-yl)-5-((6((R)-3-(6-methylpyridine-3-yl)isoxazolidine-2-yl)pyrimidine-4-yl)amino)phenyl) acrylamide] | B (50 nM ≤ GI50 < 500 nM) |
| C=CC(=O)Nc1cc(Nc2cc(N3OCC[C@@H]3c3cc(F)cc(F)c3)ncn2)c(OC)cc1OCCC(C)(C)OC [compound 495, N-(5-((6-((R)-3-(3,5-difluorophenyl)isoxazolidine-2-yl)pyrimidine-4-yl)amino)-4-methoxy-2-(3-methoxy-3-methylbutoxy)phenyl) acrylamide] | A (GI50 < 50 nM) |
